Key:
Test in all cases: radiometric filter-binding kinase assay, Kinase HotSpot
Details in all cases: compound 0.5 µM; ATP 10 µM
[1] = target: CDK9 CCNT1 (human) (UniProt P50750+O60563)
[2] = target: PTK2 (human) (UniProt Q05397)
[3] = target: PRKCI (human) (UniProt P41743)
[4] = target: FGFR3 (human) (UniProt P22607)
[5] = target: MAPK3 (human) (UniProt P27361)
[6] = target: CSNK1E (human) (UniProt P49674)
[7] = target: PRKX (human) (UniProt P51817)
[8] = target: TYK2 JH1 catalytic (human) (UniProt P29597)
[9] = target: TBK1 (human) (UniProt Q9UHD2)
[10] = target: PLK1 (human) (UniProt P53350)
[11] = target: WNK3 (human) (UniProt Q9BYP7)
[12] = target: HIPK2 (human) (UniProt Q9H2X6)
[13] = target: CAMK1 (human) (UniProt Q14012)
[14] = target: NTRK3 (human) (UniProt Q16288)
[15] = target: PRKCA (human) (UniProt P17252)
[16] = target: MAP3K10 (human) (UniProt Q02779)
[17] = target: EPHA3 (human) (UniProt P29320)
[18] = target: MARK4 (human) (UniProt Q96L34)
[19] = target: NUAK1 (human) (UniProt O60285)
[20] = target: MAPK13 (human) (UniProt O15264)
[21] = target: PRKCH (human) (UniProt P24723)
[22] = target: RIPK2 (human) (UniProt O43353)
[23] = target: ADRBK1 (human) (UniProt P25098)
[24] = target: STK17A (human) (UniProt Q9UEE5)
[25] = target: PIM2 (human) (UniProt Q9P1W9)
[26] = target: FYN (human) (UniProt P06241)
[27] = target: CLK3 (human) (UniProt P49761)
[28] = target: AKT2 (human) (UniProt P31751)
[29] = target: CDC42BPA (human) (UniProt Q5VT25)
[30] = target: AKT3 (human) (UniProt Q9Y243)
[31] = target: MAPK12 (human) (UniProt P53778)
[32] = target: MAPK11 (human) (UniProt Q15759)
[33] = target: RPS6KA1 KD1 KD2 (human) (UniProt Q15418)
[34] = target: ERBB2 (human) (UniProt P04626)
[35] = target: NTRK1 (human) (UniProt P04629)
[36] = target: CHUK (human) (UniProt O15111)
[37] = target: PAK4 (human) (UniProt O96013)
[38] = target: MAP4K5 (human) (UniProt Q9Y4K4)
[39] = target: NTRK2 (human) (UniProt Q16620)
[40] = target: CDK5 CDK5R1 p25 (human) (UniProt Q00535+Q15078)
[41] = target: TSSK2 (human) (UniProt Q96PF2)
[42] = target: IGF1R (human) (UniProt P08069)

FGFR3 (human), sequence (P22607 whole entry, looked up): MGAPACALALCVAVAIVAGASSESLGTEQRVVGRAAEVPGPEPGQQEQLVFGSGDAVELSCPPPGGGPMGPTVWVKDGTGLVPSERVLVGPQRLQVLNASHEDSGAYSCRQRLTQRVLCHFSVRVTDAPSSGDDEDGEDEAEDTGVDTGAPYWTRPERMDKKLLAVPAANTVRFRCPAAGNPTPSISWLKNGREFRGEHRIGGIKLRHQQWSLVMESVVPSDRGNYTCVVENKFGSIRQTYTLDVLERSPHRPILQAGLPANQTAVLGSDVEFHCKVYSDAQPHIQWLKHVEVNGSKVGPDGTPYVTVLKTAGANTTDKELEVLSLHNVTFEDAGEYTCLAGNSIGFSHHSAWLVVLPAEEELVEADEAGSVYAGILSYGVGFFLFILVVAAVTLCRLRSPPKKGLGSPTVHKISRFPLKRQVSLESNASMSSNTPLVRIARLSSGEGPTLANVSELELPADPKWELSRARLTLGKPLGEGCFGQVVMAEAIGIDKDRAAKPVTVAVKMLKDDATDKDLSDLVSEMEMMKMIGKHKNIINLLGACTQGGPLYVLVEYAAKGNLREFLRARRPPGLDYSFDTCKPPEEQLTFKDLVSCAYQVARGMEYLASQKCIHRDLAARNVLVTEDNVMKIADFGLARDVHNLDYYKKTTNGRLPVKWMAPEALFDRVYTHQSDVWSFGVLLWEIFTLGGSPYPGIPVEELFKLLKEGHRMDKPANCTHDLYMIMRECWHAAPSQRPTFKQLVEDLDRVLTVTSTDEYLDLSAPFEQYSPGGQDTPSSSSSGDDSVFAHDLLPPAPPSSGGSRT
AKT2 (human), sequence (P31751 whole entry, looked up): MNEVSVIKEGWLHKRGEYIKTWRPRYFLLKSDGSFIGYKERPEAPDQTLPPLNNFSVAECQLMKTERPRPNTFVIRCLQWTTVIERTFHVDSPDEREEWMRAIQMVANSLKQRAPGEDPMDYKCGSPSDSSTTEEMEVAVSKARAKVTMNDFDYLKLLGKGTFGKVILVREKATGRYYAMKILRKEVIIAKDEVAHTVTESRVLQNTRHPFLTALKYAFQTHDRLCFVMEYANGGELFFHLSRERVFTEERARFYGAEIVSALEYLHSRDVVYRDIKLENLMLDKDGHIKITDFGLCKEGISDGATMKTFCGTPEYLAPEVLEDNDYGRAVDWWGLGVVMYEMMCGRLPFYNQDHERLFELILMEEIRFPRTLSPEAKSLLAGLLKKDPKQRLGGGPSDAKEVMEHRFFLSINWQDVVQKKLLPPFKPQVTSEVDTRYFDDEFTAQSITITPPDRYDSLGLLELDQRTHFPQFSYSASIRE
PIM2 (human), sequence (Q9P1W9 whole entry, looked up): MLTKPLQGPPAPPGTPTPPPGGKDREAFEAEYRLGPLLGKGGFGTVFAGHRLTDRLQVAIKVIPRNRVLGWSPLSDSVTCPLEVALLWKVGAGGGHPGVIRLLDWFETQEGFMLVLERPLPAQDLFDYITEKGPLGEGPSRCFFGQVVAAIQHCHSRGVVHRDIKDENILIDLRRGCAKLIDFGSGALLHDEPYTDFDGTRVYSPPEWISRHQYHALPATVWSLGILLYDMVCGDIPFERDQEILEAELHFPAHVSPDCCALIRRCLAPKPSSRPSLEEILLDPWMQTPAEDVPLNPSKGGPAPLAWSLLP
TYK2 JH1 catalytic (human), sequence (P29597 whole entry, looked up): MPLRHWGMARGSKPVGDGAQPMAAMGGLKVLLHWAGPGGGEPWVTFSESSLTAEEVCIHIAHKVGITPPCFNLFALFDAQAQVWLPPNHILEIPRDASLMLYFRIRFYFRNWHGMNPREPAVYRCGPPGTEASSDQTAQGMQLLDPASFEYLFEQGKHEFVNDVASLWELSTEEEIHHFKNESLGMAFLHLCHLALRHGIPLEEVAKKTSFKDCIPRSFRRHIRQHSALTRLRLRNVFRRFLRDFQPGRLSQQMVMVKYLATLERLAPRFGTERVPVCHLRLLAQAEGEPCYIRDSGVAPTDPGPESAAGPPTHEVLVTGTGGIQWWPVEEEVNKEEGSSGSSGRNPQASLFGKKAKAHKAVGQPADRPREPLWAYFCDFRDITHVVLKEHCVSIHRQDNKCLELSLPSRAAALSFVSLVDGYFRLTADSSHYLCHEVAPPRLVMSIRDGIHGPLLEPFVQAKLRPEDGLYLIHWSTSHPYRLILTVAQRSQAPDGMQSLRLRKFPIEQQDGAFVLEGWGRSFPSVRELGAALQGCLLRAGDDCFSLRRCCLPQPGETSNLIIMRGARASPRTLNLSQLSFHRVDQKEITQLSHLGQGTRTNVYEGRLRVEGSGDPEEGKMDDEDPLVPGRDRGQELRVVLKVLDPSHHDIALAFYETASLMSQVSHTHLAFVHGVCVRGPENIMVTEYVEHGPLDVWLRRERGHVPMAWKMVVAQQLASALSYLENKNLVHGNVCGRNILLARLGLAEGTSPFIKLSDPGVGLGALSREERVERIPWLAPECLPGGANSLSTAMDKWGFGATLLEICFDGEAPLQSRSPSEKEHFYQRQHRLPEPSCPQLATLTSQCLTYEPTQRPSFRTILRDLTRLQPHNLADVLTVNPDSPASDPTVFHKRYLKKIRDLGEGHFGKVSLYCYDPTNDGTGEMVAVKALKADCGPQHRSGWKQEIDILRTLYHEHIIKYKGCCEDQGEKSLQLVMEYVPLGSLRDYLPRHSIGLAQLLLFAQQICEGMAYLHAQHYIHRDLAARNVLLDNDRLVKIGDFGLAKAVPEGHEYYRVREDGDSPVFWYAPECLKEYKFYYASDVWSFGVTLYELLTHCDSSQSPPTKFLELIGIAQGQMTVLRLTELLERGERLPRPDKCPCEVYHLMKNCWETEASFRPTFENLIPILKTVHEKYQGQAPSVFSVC
FYN (human), sequence (P06241 whole entry, looked up): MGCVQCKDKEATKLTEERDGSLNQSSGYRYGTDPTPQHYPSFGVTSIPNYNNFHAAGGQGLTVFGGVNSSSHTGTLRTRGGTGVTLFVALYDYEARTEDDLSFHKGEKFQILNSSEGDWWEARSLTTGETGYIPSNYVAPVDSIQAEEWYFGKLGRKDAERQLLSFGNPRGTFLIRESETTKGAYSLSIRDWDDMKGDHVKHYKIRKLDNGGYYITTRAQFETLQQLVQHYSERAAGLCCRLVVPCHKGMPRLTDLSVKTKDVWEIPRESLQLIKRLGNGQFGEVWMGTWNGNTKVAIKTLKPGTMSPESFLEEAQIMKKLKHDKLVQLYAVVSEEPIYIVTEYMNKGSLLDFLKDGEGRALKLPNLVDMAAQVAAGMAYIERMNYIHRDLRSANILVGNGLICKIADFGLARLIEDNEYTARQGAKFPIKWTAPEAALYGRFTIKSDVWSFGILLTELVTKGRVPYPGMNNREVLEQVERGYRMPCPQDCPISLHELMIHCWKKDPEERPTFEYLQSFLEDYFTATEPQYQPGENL
PRKCH (human), sequence (P24723 whole entry, looked up): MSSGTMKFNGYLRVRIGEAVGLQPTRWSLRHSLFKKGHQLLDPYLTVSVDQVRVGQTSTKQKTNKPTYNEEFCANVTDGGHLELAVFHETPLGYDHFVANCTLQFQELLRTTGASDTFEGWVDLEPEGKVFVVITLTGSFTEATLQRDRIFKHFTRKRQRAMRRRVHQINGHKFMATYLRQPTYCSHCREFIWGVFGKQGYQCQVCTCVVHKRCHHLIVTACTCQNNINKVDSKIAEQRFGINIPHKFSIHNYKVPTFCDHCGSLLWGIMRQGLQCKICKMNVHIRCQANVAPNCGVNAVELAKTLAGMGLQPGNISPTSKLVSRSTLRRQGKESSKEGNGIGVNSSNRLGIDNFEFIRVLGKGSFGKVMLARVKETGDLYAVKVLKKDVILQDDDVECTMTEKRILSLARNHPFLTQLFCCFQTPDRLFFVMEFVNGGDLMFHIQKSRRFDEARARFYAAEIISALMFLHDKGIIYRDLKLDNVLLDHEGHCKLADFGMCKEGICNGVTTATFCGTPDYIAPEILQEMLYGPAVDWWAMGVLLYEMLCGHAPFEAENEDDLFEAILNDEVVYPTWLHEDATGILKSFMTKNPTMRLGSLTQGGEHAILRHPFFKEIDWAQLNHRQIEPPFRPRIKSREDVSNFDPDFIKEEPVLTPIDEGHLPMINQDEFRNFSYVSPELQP
PLK1 (human), sequence (P53350 whole entry, looked up): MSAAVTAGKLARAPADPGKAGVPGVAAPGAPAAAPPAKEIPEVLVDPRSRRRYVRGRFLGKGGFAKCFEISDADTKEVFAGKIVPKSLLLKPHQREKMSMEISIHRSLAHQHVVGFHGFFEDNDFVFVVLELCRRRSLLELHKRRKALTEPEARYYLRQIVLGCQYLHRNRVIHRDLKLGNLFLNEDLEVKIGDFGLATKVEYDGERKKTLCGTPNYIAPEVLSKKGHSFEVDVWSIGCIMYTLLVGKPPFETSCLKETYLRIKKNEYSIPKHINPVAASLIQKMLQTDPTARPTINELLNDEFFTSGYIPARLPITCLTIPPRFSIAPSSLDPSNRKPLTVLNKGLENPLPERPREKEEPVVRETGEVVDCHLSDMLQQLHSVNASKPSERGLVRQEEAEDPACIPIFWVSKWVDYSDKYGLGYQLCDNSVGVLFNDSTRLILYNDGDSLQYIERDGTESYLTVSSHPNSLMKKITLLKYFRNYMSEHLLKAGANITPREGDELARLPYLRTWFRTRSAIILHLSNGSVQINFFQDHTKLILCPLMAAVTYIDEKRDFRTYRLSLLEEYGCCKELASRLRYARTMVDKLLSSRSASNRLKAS
STK17A (human), sequence (Q9UEE5 whole entry, looked up): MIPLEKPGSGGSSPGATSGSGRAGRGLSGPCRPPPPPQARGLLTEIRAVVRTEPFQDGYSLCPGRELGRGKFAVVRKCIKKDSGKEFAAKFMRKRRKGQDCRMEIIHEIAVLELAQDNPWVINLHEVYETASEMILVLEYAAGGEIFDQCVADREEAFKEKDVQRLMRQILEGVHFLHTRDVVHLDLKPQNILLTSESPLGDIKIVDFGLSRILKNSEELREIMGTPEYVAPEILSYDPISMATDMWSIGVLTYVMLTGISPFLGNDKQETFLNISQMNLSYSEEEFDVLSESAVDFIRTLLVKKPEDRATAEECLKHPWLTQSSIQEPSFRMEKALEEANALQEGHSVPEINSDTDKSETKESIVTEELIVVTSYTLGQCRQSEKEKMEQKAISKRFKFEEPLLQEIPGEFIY

## O=C(Nc1ccc(Cl)cc1)c1ccccc1NCc1ccncc1
[1]
  residual activity: 81.9%
[2]
  residual activity: 95.7%
[3]
  residual activity: 98.7%
[4]
  residual activity: 92.2%
[5]
  residual activity: 102%
[6]
  residual activity: 92.5%
[7]
  residual activity: 90.5%
[8]
  residual activity: 92.1%
[9]
  residual activity: 88.4%
[10]
  residual activity: 103%
[11]
  residual activity: 92.9%
[12]
  residual activity: 93%
[13]
  residual activity: 103%
[14]
  residual activity: 97%
[15]
  residual activity: 96.7%
[16]
  residual activity: 104%
[17]
  residual activity: 92.1%
[18]
  residual activity: 107%
[19]
  residual activity: 96.5%
[20]
  residual activity: 95.6%
[21]
  residual activity: 96.2%
[22]
  residual activity: 82.9%
[23]
  residual activity: 98.2%
[24]
  residual activity: 94.7%
[25]
  residual activity: 99.5%
[26]
  residual activity: 97%
[27]
  residual activity: 98.1%
[28]
  residual activity: 95.2%
[29]
  residual activity: 90.5%
[30]
  residual activity: 97.9%
[31]
  residual activity: 97.3%
[32]
  residual activity: 91.4%
[33]
  residual activity: 92%
[34]
  residual activity: 98.7%
[35]
  residual activity: 95.5%
[36]
  residual activity: 104%
[37]
  residual activity: 90.6%
[38]
  residual activity: 95.8%
[39]
  residual activity: 102%
[40]
  residual activity: 84.9%
[41]
  residual activity: 86.3%

## O=C1Cc2c([nH]c3ccc([N+](=O)[O-])cc23)-c2ccccc2N1
[1]
  residual activity: 22.6%
[2]
  residual activity: 88.1%
[3]
  residual activity: 83.3%
[4]
  residual activity: 90.5%
[5]
  residual activity: 93.5%
[6]
  residual activity: 95.9%
[7]
  residual activity: 74.5%
[8]
  residual activity: 56.5%
[9]
  residual activity: 82.4%
[10]
  residual activity: 98%
[11]
  residual activity: 99.7%
[12]
  residual activity: 110%
[13]
  residual activity: 94.8%
[14]
  residual activity: 63.4%
[15]
  residual activity: 59.9%
[16]
  residual activity: 48.6%
[17]
  residual activity: 97.8%
[18]
  residual activity: 55.4%
[19]
  residual activity: 12%
[21]
  residual activity: 96.9%
[22]
  residual activity: 43.4%
[23]
  residual activity: 91.8%
[24]
  residual activity: 46.4%
[25]
  residual activity: 113%
[26]
  residual activity: 53.1%
[27]
  residual activity: 106%
[28]
  residual activity: 101%
[29]
  residual activity: 96.2%
[42]
  residual activity: 93%
[30]
  residual activity: 94.1%
[31]
  residual activity: 112%
[32]
  residual activity: 102%
[33]
  residual activity: 89.7%
[34]
  residual activity: 94.8%
[35]
  residual activity: 107%
[36]
  residual activity: 103%
[37]
  residual activity: 93.9%
[38]
  residual activity: 15.9%
[39]
  residual activity: 86.1%
[40]
  residual activity: 10.5%
[41]
  residual activity: 88.3%

## O=c1cc(N2CCNCC2)oc2c(-c3ccccc3)cccc12
[1]
  residual activity: 98.8%
[2]
  residual activity: 99%
[3]
  residual activity: 105%
[4]
  residual activity: 96.3%
[5]
  residual activity: 119%
[6]
  residual activity: 101%
[7]
  residual activity: 99%
[8]
  residual activity: 98.5%
[9]
  residual activity: 98.7%
[10]
  residual activity: 96.6%
[11]
  residual activity: 93.4%
[12]
  residual activity: 108%
[13]
  residual activity: 99.2%
[14]
  residual activity: 99.8%
[15]
  residual activity: 99.1%
[16]
  residual activity: 87.9%
[17]
  residual activity: 88.5%
[18]
  residual activity: 92.8%
[19]
  residual activity: 95.5%
[20]
  residual activity: 104%
[21]
  residual activity: 97%
[22]
  residual activity: 82.9%
[23]
  residual activity: 109%
[24]
  residual activity: 98.4%
[25]
  residual activity: 121%
[26]
  residual activity: 104%
[27]
  residual activity: 109%
[28]
  residual activity: 100%
[29]
  residual activity: 107%
[42]
  residual activity: 103%
[30]
  residual activity: 102%
[31]
  residual activity: 92%
[32]
  residual activity: 105%
[33]
  residual activity: 104%
[34]
  residual activity: 95.5%
[35]
  residual activity: 96.4%
[36]
  residual activity: 103%
[37]
  residual activity: 81.1%
[39]
  residual activity: 102%
[40]
  residual activity: 94.5%
[41]
  residual activity: 101%

## O=C1Nc2cc(Br)ccc2/C1=C1/Nc2ccccc2/C1=N\O
[1]
  residual activity: 68.2%
[2]
  residual activity: 89%
[3]
  residual activity: 97.3%
[4]
  residual activity: 54.6%
[5]
  residual activity: 83.3%
[6]
  residual activity: 83.7%
[7]
  residual activity: 92.1%
[8]
  residual activity: 25.6%
[9]
  residual activity: 62.1%
[10]
  residual activity: 101%
[11]
  residual activity: 93.8%
[12]
  residual activity: 96.2%
[13]
  residual activity: 96%
[14]
  residual activity: 4.98%
[16]
  residual activity: 92.1%
[17]
  residual activity: 81.9%
[19]
  residual activity: 15.7%
[20]
  residual activity: 87.5%
[21]
  residual activity: 78.6%
[22]
  residual activity: 75.2%
[23]
  residual activity: 97.3%
[24]
  residual activity: 49.2%
[25]
  residual activity: 95.5%
[26]
  residual activity: 5.05%
[27]
  residual activity: 71.2%
[28]
  residual activity: 101%
[29]
  residual activity: 94%
[42]
  residual activity: 103%
[30]
  residual activity: 89.4%
[31]
  residual activity: 93.8%
[32]
  residual activity: 99.6%
[33]
  residual activity: 47.2%
[34]
  residual activity: 102%
[35]
  residual activity: 34.5%
[36]
  residual activity: 104%
[37]
  residual activity: 95.3%
[38]
  residual activity: 36.5%
[39]
  residual activity: 10.3%
[40]
  residual activity: 20.4%
[41]
  residual activity: 101%

— the kinase profiling compilation of Christmann-Franck et al. (2016)
